Measurements published in PubChem BioAssay (NCI).
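Values below derive from 48-hour exposures of cells grown in 96-well plates, with endpoints linearly interpolated between the two concentrations bracketing the appropriate inhibition level. TGI marks complete inhibition of growth.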

Columns and labels:
Assay in all cases: growth of human tumour cells (NCI), 48 h
CAKI-1 renal = test system: CAKI-1 renal
ACHN renal = test system: ACHN renal
SNB-19 CNS = test system: SNB-19 CNS
DU-145 prostate = test system: DU-145 prostate
KM20L2 colon = test system: KM20L2 colon
DMS 114 small cell lung = test system: DMS 114 small cell lung
U251 CNS = test system: U251 CNS
UO-31 renal = test system: UO-31 renal
OVCAR-5 ovarian = test system: OVCAR-5 ovarian
786-0 renal = test system: 786-0 renal
SF-539 CNS = test system: SF-539 CNS
XF 498 CNS = test system: XF 498 CNS
BT-549 breast = test system: BT-549 breast
SK-MEL-2 melanoma = test system: SK-MEL-2 melanoma
MDA-MB-435 = test system: MDA-MB-435
RPMI-8226 leukemia = test system: RPMI-8226 leukemia
SN12C renal = test system: SN12C renal
A549 NSCLC = test system: A549 NSCLC
SR leukemia = test system: SR leukemia
EKVX NSCLC = test system: EKVX NSCLC
RXF 393 renal = test system: RXF 393 renal
T-47D breast = test system: T-47D breast
KM12 colon = test system: KM12 colon
HCT-15 colon = test system: HCT-15 colon
NCI-H522 lung = test system: NCI-H522 lung
MDA-MB-231 breast = test system: MDA-MB-231 breast
SK-MEL-28 melanoma = test system: SK-MEL-28 melanoma
LOX IMVI melanoma = test system: LOX IMVI melanoma
SW-620 colon = test system: SW-620 colon
NCI-H226 lung = test system: NCI-H226 lung
SK-MEL-5 melanoma = test system: SK-MEL-5 melanoma
NCI-H23 lung = test system: NCI-H23 lung
OVCAR-3 ovarian = test system: OVCAR-3 ovarian
HCC-2998 colon = test system: HCC-2998 colon
HT29 colon = test system: HT29 colon
IGROV1 ovarian = test system: IGROV1 ovarian
SF-268 CNS = test system: SF-268 CNS
MALME-3M melanoma = test system: MALME-3M melanoma
A498 renal = test system: A498 renal
DMS 273 small cell lung = test system: DMS 273 small cell lung
OVCAR-4 ovarian = test system: OVCAR-4 ovarian
UACC-62 melanoma = test system: UACC-62 melanoma
K-562 leukemia = test system: K-562 leukemia
SF-295 CNS = test system: SF-295 CNS
CCRF-CEM leukemia = test system: CCRF-CEM leukemia
HOP-62 NSCLC = test system: HOP-62 NSCLC
HS 578T breast = test system: HS 578T breast
SNB-78 CNS = test system: SNB-78 CNS
DLD-1 colon = test system: DLD-1 colon
COLO 205 colon = test system: COLO 205 colon
LXFL 529 NSCLC = test system: LXFL 529 NSCLC
MOLT-4 leukemia = test system: MOLT-4 leukemia
TK-10 renal = test system: TK-10 renal
M14 melanoma = test system: M14 melanoma
PC-3 prostate = test system: PC-3 prostate
M19-MEL melanoma = test system: M19-MEL melanoma
MDA-N = test system: MDA-N
HOP-18 NSCLC = test system: HOP-18 NSCLC
NCI/ADR-RES ovarian = test system: NCI/ADR-RES ovarian
NCI-H460 lung = test system: NCI-H460 lung
HCT-116 colon = test system: HCT-116 colon
OVCAR-8 ovarian = test system: OVCAR-8 ovarian
UACC-257 melanoma = test system: UACC-257 melanoma
SK-OV-3 ovarian = test system: SK-OV-3 ovarian
HL-60(TB) leukemia = test system: HL-60(TB) leukemia
SNB-75 CNS = test system: SNB-75 CNS
HOP-92 NSCLC = test system: HOP-92 NSCLC
RXF-631 renal = test system: RXF-631 renal

## Nc1nc(N)c2c(Cl)c(CNc3ccc(Cl)c(Cl)c3)ccc2n1
CAKI-1 renal
  TGI: 16 µM
ACHN renal
  TGI: 14 µM
SNB-19 CNS
  TGI: 17.7 µM
DU-145 prostate
  TGI: 15.7 µM
KM20L2 colon
  TGI: 18.6 µM
DMS 114 small cell lung
  TGI: 4.85 µM
U251 CNS
  TGI: 11.2 µM
UO-31 renal
  TGI: 10.3 µM
OVCAR-5 ovarian
  TGI: 12.1 µM
786-0 renal
  TGI: 8.39 µM
SF-539 CNS
  TGI: 1.21 µM
XF 498 CNS
  TGI: 7.71 µM
BT-549 breast
  TGI: 19.1 µM
SK-MEL-2 melanoma
  TGI: 16.7 µM
MDA-MB-435
  TGI: 17.5 µM
RPMI-8226 leukemia
  TGI: 12.5 µM
SN12C renal
  TGI: 23.3 µM
A549 NSCLC
  TGI: 14.5 µM
SR leukemia
  TGI: 7.36 µM
EKVX NSCLC
  TGI: 19.2 µM
RXF 393 renal
  TGI: 7.26 µM
T-47D breast
  TGI: 23.3 µM
KM12 colon
  TGI: 3.19 µM
HCT-15 colon
  TGI: 13.6 µM
NCI-H522 lung
  TGI: 9.56 µM
MDA-MB-231 breast
  TGI: 7.26 µM
SK-MEL-28 melanoma
  TGI: 18.7 µM
LOX IMVI melanoma
  TGI: 7.37 µM
SW-620 colon
  TGI: 14.6 µM
NCI-H226 lung
  TGI: 33.7 µM
SK-MEL-5 melanoma
  TGI: 4.65 µM
NCI-H23 lung
  TGI: 5.43 µM
OVCAR-3 ovarian
  TGI: 11 µM
HCC-2998 colon
  TGI: 2.05 µM
HT29 colon
  TGI: 10.3 µM
IGROV1 ovarian
  TGI: 13.4 µM
SF-268 CNS
  TGI: 15.7 µM
MALME-3M melanoma
  TGI: 12.8 µM
A498 renal
  TGI: 8.68 µM
DMS 273 small cell lung
  TGI: 3.87 µM
OVCAR-4 ovarian
  TGI: 16.9 µM
UACC-62 melanoma
  TGI: 13.7 µM
K-562 leukemia
  TGI: 2.97 µM
SF-295 CNS
  TGI: 12.2 µM
CCRF-CEM leukemia
  TGI: 12.1 µM
HOP-62 NSCLC
  TGI: 6.59 µM
HS 578T breast
  TGI: 11.9 µM
SNB-78 CNS
  TGI: 25.4 µM
DLD-1 colon
  TGI: 11.8 µM
COLO 205 colon
  TGI: 13 µM
LXFL 529 NSCLC
  TGI: 12.3 µM
MOLT-4 leukemia
  TGI: 9.41 µM
TK-10 renal
  TGI: 12.4 µM
M14 melanoma
  TGI: 3.87 µM
PC-3 prostate
  TGI: 12.7 µM
M19-MEL melanoma
  TGI: 12.5 µM
MDA-N
  TGI: 17 µM
HOP-18 NSCLC
  TGI: 17.1 µM
NCI/ADR-RES ovarian
  TGI: 18.7 µM
NCI-H460 lung
  TGI: 11.4 µM
HCT-116 colon
  TGI: 12.4 µM
OVCAR-8 ovarian
  TGI: 16 µM
UACC-257 melanoma
  TGI: 19.4 µM
SK-OV-3 ovarian
  TGI: 16.1 µM
HL-60(TB) leukemia
  TGI: 2.75 µM
SNB-75 CNS
  TGI: 18.4 µM
HOP-92 NSCLC
  TGI: 9.36 µM

## O=S(O)CCCCCSSc1ccc(Cl)cc1
SNB-19 CNS
  TGI: 91.4 µM
U251 CNS
  TGI: 21.7 µM
UO-31 renal
  TGI: 26.3 µM
OVCAR-5 ovarian
  TGI: 50.2 µM
SF-539 CNS
  TGI: 29.5 µM
XF 498 CNS
  TGI: 36 µM
SK-MEL-2 melanoma
  TGI: 34.7 µM
SN12C renal
  TGI: 31.1 µM
EKVX NSCLC
  TGI: > 100 µM
RXF 393 renal
  TGI: 31.4 µM
KM12 colon
  TGI: 60.7 µM
NCI-H522 lung
  TGI: 28.5 µM
SK-MEL-28 melanoma
  TGI: 66.6 µM
LOX IMVI melanoma
  TGI: 29.9 µM
RXF-631 renal
  TGI: 46.8 µM
NCI-H23 lung
  TGI: 44.4 µM
OVCAR-3 ovarian
  TGI: 31.3 µM
HCC-2998 colon
  TGI: 73.7 µM
HT29 colon
  TGI: 70.5 µM
SF-268 CNS
  TGI: 23.5 µM
MALME-3M melanoma
  TGI: 89.9 µM
A498 renal
  TGI: 36.6 µM
OVCAR-4 ovarian
  TGI: > 100 µM
K-562 leukemia
  TGI: > 100 µM
CCRF-CEM leukemia
  TGI: > 100 µM
HOP-62 NSCLC
  TGI: 41.3 µM
SNB-78 CNS
  TGI: 70.3 µM
DLD-1 colon
  TGI: 67.5 µM
LXFL 529 NSCLC
  TGI: 27 µM
TK-10 renal
  TGI: 54.4 µM
M14 melanoma
  TGI: 71.5 µM
M19-MEL melanoma
  TGI: 91 µM
NCI-H460 lung
  TGI: > 100 µM
HCT-116 colon
  TGI: 77.2 µM
UACC-257 melanoma
  TGI: 59.3 µM
SK-OV-3 ovarian
  TGI: > 100 µM
HL-60(TB) leukemia
  TGI: > 100 µM
SNB-75 CNS
  TGI: 56.2 µM
